Assays:
[1] = FDO absorbed intact into the blood stream of the mouse; format: in vivo; conditions: Skh mice fed chow containing 0.01% 14C-FDO for 14 days; blood analyzed by HPLC
Description: (§1) Three key parameters were measured prior to starting the study: (a) FDO stability under the diet making conditions (70° C. for 3 hours under vacuum), (b) FDO stability to stomach pH (approximately pH 1), and (c) FDO absorbed intact into the blood stream of the mouse. The following were the outcomes: • (a) The FDO was mixed with ground Purina Mouse Chow® and heated to 70° C. for 3 hours under vacuum; the FDO was then extracted from the chow with ethanol and assayed by HPLC and by UV absorption spectrum. […]

[2] = FDO stability under the diet making conditions; format: physicochemical; conditions: mixed with ground Purina Mouse Chow, 70° C. for 3 hours under vacuum; ethanol extract, HPLC and UV absorption
Description: as §1

[3] = FDO stability to stomach pH; format: physicochemical; conditions: 2:1:1 ethanol:propylene glycol:water at pH 1 (HCl); HPLC and UV absorption
Description: as §1

[4] = FDO content of FDO-containing diets during storage over the study; format: physicochemical; conditions: diets stored at 4° C., sampled at 3 month intervals over approximately two years; UV absorption
Description: (§2) The FDO-containing and control diets were prepared by Teklad (Madison, Wis.) by addition of FDO to standard Purina Mouse Chow®. Diets were stored at 4° C. in sealed containers until used. The levels of FDO in the diets were 0%, 0.01%, and 0.1%.
At 3 month intervals throughout the study, samples of the FDO-containing Purina Mouse Chow® were ground and extracted with ethanol; the ethanol was then analyzed for FDO content by UV absorption (obtaining the absorption spectrum versus the FDO standard and then determining level of FDO at the peak absorption).

[5] = system: female albino Skh:HR-1 hairless mice; assay: Effect of dietary FDO on mouse average life span (survival); format: in vivo; conditions: for Mean survival: control 553 days
Description: Forty eight (48) female albino Skh:HR-1 hairless mice were obtained from Charles River Laboratories (Portage, Mich.). At the start of the study, the mice were approximately 20 weeks old. The mice were housed four to a standard plastic cage and given feed and water ad libitum. Sixteen (16) mice were placed on each of the three test diets described below.
The 2-Furildioxime (FDO) was obtained from Aldrich Chemical Co. (Milwaukee, Wis.).
as §2
Throughout the study, mouse weights, food consumption, and date of death were recorded.

[6] = 0.01% and 0.1% FDO diets vs. 0% control diet

ON=C(C(=NO)c1ccco1)c1ccco1 [FDO, 2-furildioxime]
FDO in blood after dietary administration [1]: Intact FDO was detected
loss of FDO under diet making conditions [2]: no detectable loss
loss of FDO at stomach pH [3]: no detectable loss
loss of FDO from the diets [4]: no detectable loss
% Increase in Survival Time ([5]; 0.01% FDO diet vs. control diet, p = 0.05): 14%
Mean survival ([5]; 0.01% FDO diet, p = 0.05 vs. control): 632 days
mouse body weights [5, 6]: not different
mouse food consumption [5, 6]: not different
% Increase in Survival Time ([5]; 0.1% FDO diet vs. control diet, p = 0.02): 20%
Mean survival ([5]; 0.1% FDO diet, p = 0.02 vs. control): 664 days
death from all causes ([5]; FDO-fed mice): delayed to a later date
differences in the causes of death among the diet groups ([5]; autopsy, 0.01% and 0.1% FDO diets vs. control): not any differences
life span relative to the control diet ([5]; both FDO diets (0.01% and 0.1%), statistical analysis): significantly increased
appearance or behavioral differences ([5]; daily observation, 0.01% and 0.1% FDO diets vs. control): No differences

— patent US20050020672A1, “Methods of extending mammalian life span via iron chelating compounds that reduce free radical damage in mammals” (priority 1994, published 2005)
